Reference: PubChem BioAssay AID1963848 (Molecular Pharmacology Branch, DTP, NCI, 2024)
Where “and” joins values, the source holds several entries; their conditions need not be identical. Equal values may be shown once.

Test system: 379773-124-R-J2-PDC spheroid viability
Assay: Anticancer human tumor 379773-124-R-J2-PDC patient-derived endometrial carcinoma cell line growth inhibition [POLQ]
Conditions: spheroids with HUVEC and MSC; for viability, T/C: stronger effect = lower value
Method: Multicellular complex tumor spheroid response to Polymerase (POL) inhibitors (novobiocin, ART-558, RP6685) in combination with a variety of drugs and investigational agents in selected tumor cell lines
The POL inhibitors (novobiocin, ART-558, and RP6685) were evaluated both individually and in combination with standard of care and investigational anticancer small molecules within a complex spheroid model of solid tumors. . Complex spheroids include a stromal component modeled by human endothelial cells (HUVEC) and fibroblasts modeled by human mesenchymal stem cells (MSCs). The concentration ranges selected for each drug and investigational agent were based upon clinically achievable concentrations if the clinical Cmax of the agent was known.
Compounds. The drugs and investigational agents: novobiocin (NSC847541), ART-558 (NSC835418), RP-6685 (NSC848927), peposertib (NSC802822), ceralasertib (NSC780249), elimusertib (NSC800525), camonsertib (NSC841442), AZD-1390 (NSC803789), olaparib (NSC753686), talazoparib (NSC767125), rucaparib (NSC756644), sotorasib (NSC818433), MRTX-1133 (NSC836407), SN-38 (NSC673596), topotecan (NSC609699), epotoside (NSC141540), doxorubicin (NSC123127), gemcitabine (NSC613327), 5-fluorouracil (NSC19893), paclitaxel (NSC125973), vemurafenib (NSC761431), MSA-2 (NSC828583), SN-011 (NSC837082), adavosertib (NSC754352), prexasertib (NSC758257), carboplatin (NSC241240) and oxaliplatin (NSC266046), were obtained from the National Cancer Institute (NCI) Developmental Therapeutics Program Chemical Repository (21). The FDA-approved anticancer drug set is available from the Developmental Therapeutics Program at https://dtp.cancer.gov/organization/dscb/obtaining/. […] The stock solutions were prepared in dimethyl sulfoxide (DMSO, Sigma-Aldrich, St. Louis, MO, cat. D2650), except for the platinum compounds which were prepared in saline (Quality Biological, Gaithersburg, MD, cat. 114-055-101), at 800-fold the tested concentration and stored at -70 degrees C prior to their use. All drugs and investigational agents were tested over a range starting from a high concentration at or near the clinical Cmax and decreasing in half-log increments. If the clinical Cmax for an agent had not been determined, the highest concentration tested was 10 microM, except for SN-38, which was tested at a high concentration of 1 microM.
Cell Culture. All cells were maintained in an incubator at 37 degrees C and 5% CO2 with 95% humidity. The PDC lines were cultured according to standard operating procedures established by the NCI PDMR (https://pdmr.cancer.gov). Table 3 of the manuscript, lists the cell lines along with the number of the three cell types plated to form the mct-spheroids and media for tumor cell growth. After thawing, all PDC lines, except 997537-175-T-J1-PDC and 415267-285-R-J2-PDC, were cultured in Matrigel-coated flasks prepared with a working solution of 1X Ham's F-12 nutrient mix, without supplementation (Thermo Fisher Scientific, cat. 11765054), 100 U/mL penicillin-streptomycin (Thermo Fisher Scientific, cat. 15140122), and 2.5% Matrigel (Corning Inc., Corning, NY, cat. 354248) for the first three passages. The two PDC lines 997537-175-T-J1-PDC and 415267-285-R-J2-PDC were cultured on uncoated flasks. The 857933-349-R-J2-PDC line was cultured in 6C/Colon 1B media containing advanced DMEM/F-12 (Thermo Fisher Scientific, cat. 12634028), 10 mM HEPES (Thermo Fisher Scientific, cat. 15630080), 1X GlutaMAX supplement (Thermo Fisher Scientific, cat. 35050061), 0.1 mg/mL primocin (InvivoGen, San Diego, CA, cat. ant-pm-2), 10% defined fetal bovine serum, heat inactivated (HyClone Laboratories Inc., Logan, UT, cat. SH30070.03HI), 50% L-WRN conditioned media (ATCC, cat. CRL-3276), 1.25 mM N-Acetyl-L-cysteine (Sigma-Aldrich, cat. A9165), 10 mM nicotinamide (Sigma-Aldrich, cat. N0636), 1X B-27 supplement (Thermo Fisher Scientific, cat. 17504044), 1X N-2 supplement (Thermo Fisher Scientific, cat. […]
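Note: spheroids exposed to drugs for seven days before readout.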
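Throughout, for viability, T/C: percent viability relative to DMSO vehicle control taken as 100%.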

Question: Which results are given for CCc1cc2c(N3CCc4c(cc(Cn5ccnc5)cc4-c4cn(C)nc4C(F)(F)F)C3=O)ccnc2c(OC)n1 + COC1C(OC(N)=O)C(O)C(Oc2ccc3c(O)c(NC(=O)c4ccc(O)c(CC=C(C)C)c4)c(=O)oc3c2C)OC1(C)C?
Answer: IC50 (curve of first compound, second compound 0.0316 µM): 3420 nM; IC50 (curve of first compound, second compound 0.1 µM): 2600 nM; IC50 (curve of first compound, second compound 0.316 µM): 2420 nM; IC50 (curve of first compound, second compound 1 µM): 3580 nM; IC50 (curve of first compound, second compound 3.16 µM): 1790 nM; IC50 (curve of first compound, second compound 10 µM): > 10000 nM; viability, T/C (second compound 0.0316 µM, first compound 0.0316 µM): 79.6%; viability, T/C (second compound 0.0316 µM, first compound 0.1 µM): 68.7%; viability, T/C (second compound 0.0316 µM, first compound 0.316 µM): 62.5%; viability, T/C (second compound 0.0316 µM, first compound 1 µM): 58.6%; viability, T/C (second compound 0.0316 µM, first compound 3.16 µM): 52.4%; viability, T/C (second compound 0.0316 µM, first compound 10 µM): 42.6%; viability, T/C (second compound 0.1 µM, first compound 0.0316 µM): 79.5%; viability, T/C (second compound 0.1 µM, first compound 0.1 µM): 64.2%; viability, T/C (second compound 0.1 µM, first compound 0.316 µM): 59.7%; viability, T/C (second compound 0.1 µM, first compound 1 µM): 56.1%; viability, T/C (second compound 0.1 µM, first compound 3.16 µM): 52.3%; viability, T/C (second compound 0.1 µM, first compound 10 µM): 42.3%; viability, T/C (second compound 0.316 µM, first compound 0.0316 µM): 75.8%; viability, T/C (second compound 0.316 µM, first compound 0.1 µM): 68%; viability, T/C (second compound 0.316 µM, first compound 0.316 µM): 59.1%; viability, T/C (second compound 0.316 µM, first compound 1 µM): 57.2%; viability, T/C (second compound 0.316 µM, first compound 3.16 µM): 48.2%; viability, T/C (second compound 0.316 µM, first compound 10 µM): 42.3%; viability, T/C (second compound 1 µM, first compound 0.0316 µM): 66.7%; viability, T/C (second compound 1 µM, first compound 0.1 µM): 65.4%; viability, T/C (second compound 1 µM, first compound 0.316 µM): 58.3%; viability, T/C (second compound 1 µM, first compound 1 µM): 58.1%; viability, T/C (second compound 1 µM, first compound 3.16 µM): 49.5%; viability, T/C (second compound 1 µM, first compound 10 µM): 44.7%; viability, T/C (second compound 3.16 µM, first compound 0.0316 µM): 77.7%; viability, T/C (second compound 3.16 µM, first compound 0.1 µM): 65%; viability, T/C (second compound 3.16 µM, first compound 0.316 µM): 55.6%; viability, T/C (second compound 3.16 µM, first compound 1 µM): 53.4%; viability, T/C (second compound 3.16 µM, first compound 3.16 µM): 52%; viability, T/C (second compound 3.16 µM, first compound 10 µM): 42.1%; viability, T/C (second compound 10 µM, first compound 0.0316 µM): 83.3%; viability, T/C (second compound 10 µM, first compound 0.1 µM): 59.6%; viability, T/C (second compound 10 µM, first compound 0.316 µM): 64.2%; viability, T/C (second compound 10 µM, first compound 1 µM): 63.8%; viability, T/C (second compound 10 µM, first compound 3.16 µM): 51.1%; viability, T/C (second compound 10 µM, first compound 10 µM): 51.1%

Question: With O=c1[nH]cc(F)c(=O)[nH]1 as the compound, how does the viability, T/C (compound 0.0316 µM) read?
Answer: Its viability, T/C is 99.4% and 89.8% and 84.2%.

Question: What about the viability, T/C (compound 0.1 µM) of the same compound?
Answer: Its viability, T/C is 81.4% and 94.1% and 74.5%.

Question: What about the viability, T/C (compound 0.316 µM) of the same compound?
Answer: The viability, T/C was 87.7% and 83.8% and 83.7%.

Question: And the viability, T/C (compound 1 µM)?
Answer: The viability, T/C was 93.3% and 88.7% and 90.6%.

Question: And the viability, T/C (compound 3.16 µM)?
Answer: Its viability, T/C is 80.8% (2×) and 87.2%.

Question: And the viability, T/C (compound 10 µM)?
Answer: The viability, T/C was 54.3% and 51.3% and 50.9%.

Question: What about the IC50 (curve of compound) of the same compound?
Answer: Its IC50 is greater than 10000 nM.

Question: With COc1cccc(OCCCN)c1-c1cc(Nc2cnc(C#N)cn2)n[nH]1 as the compound, how does the viability, T/C (compound 0.00316 µM) read?
Answer: The viability, T/C was 71.1% and 84.4% and 94.5%.

Question: And the viability, T/C (compound 0.01 µM)?
Answer: The viability, T/C was 4.45% and 22.9% and 22%.

Question: And the viability, T/C (compound 0.0316 µM)?
Answer: Its viability, T/C is 2.75% and 2.85% and 3%.

Question: What about the viability, T/C (compound 0.1 µM) of the same compound?
Answer: The viability, T/C was 2.5% and 2.23% and 2.01%.

Question: What about the viability, T/C (compound 0.316 µM) of the same compound?
Answer: Its viability, T/C is 2.05% and 2.52% and 2.6%.

Question: And the viability, T/C (compound 1 µM)?
Answer: The viability, T/C was 1.38% and 1.84% and 2.29%.

Question: What about the IC50 (curve of compound) of the same compound?
Answer: The IC50 was 4.55 nM and 6.02 nM and 6.41 nM.

Question: Which results are given for O=C(c1cc(Cc2n[nH]c(=O)c3ccccc23)ccc1F)N1CCN(C(=O)C2CC2)CC1?
Answer: viability, T/C (compound 0.0316 µM): 90.8% and 82.3% and 93.3%; viability, T/C (compound 0.1 µM): 87% and 88.1% and 91.8%; viability, T/C (compound 0.316 µM): 74.1% and 91.5% and 88.4%; viability, T/C (compound 1 µM): 75.1% and 96.4% and 97.2%; viability, T/C (compound 3.16 µM): 86.8% and 84.9% and 86.2%; viability, T/C (compound 10 µM): 44.5% and 34.6% and 49.8%; IC50 (curve of compound): 8480 nM and 7080 nM and > 10000 nM

Question: Which results are given for CCc1c2c(nc3ccc(O)cc13)-c1cc3c(c(=O)n1C2)COC(=O)[C@]3(O)CC?
Answer: viability, T/C (compound 0.00316 µM): 45.6% and 49.3% and 46.8%; viability, T/C (compound 0.01 µM): 11.9% and 17.2% and 7.71%; viability, T/C (compound 0.0316 µM): 6.11% and 11.4% and 5.39%; viability, T/C (compound 0.1 µM): 2.46% and 4.85% and 2.38%; viability, T/C (compound 0.316 µM): 1.23% and 4.28% and 1.04%; viability, T/C (compound 1 µM): 1.89% and 0.95% and 0.4%; IC50 (curve of compound): < 3.16 nM
